Results on two compounds are retold here after PMC6067752, “Investigations on the mode of action of gephyronic acid, an inhibitor of eukaryotic protein translation from myxobacteria” (PLoS ONE, 2018).

Each structure is given as a SMILES string.

For one assay, the system named is KB-3-1. In words: cells. The settings on record: Homo sapiens, KB 3-1; read-out: Gephyronic acid IC50. Set-up: species or system transformed mammalian cell lines; MTT assay (formazan absorbance at 595 nm), anti-proliferative activity on transformed cell lines.
In the next assay the test system is MCF-7. In words: cells. Also on record: species or system transformed mammalian cell lines; MTT assay (formazan absorbance at 595 nm), anti-proliferative activity on transformed cell lines. The settings on record: Homo sapiens, MCF7; read-out: Gephyronic acid IC50.
The next assay concerns A-549. In words: cells. Also on record: species or system transformed mammalian cell lines; MTT assay (formazan absorbance at 595 nm), anti-proliferative activity on transformed cell lines. The settings on record: Homo sapiens, A549; read-out: Gephyronic acid IC50.
A further assay deals with PC-3. In words: cells. Also on record: species or system transformed mammalian cell lines; MTT assay (formazan absorbance at 595 nm), anti-proliferative activity on transformed cell lines. The settings on record: Homo sapiens, PC-3; read-out: Gephyronic acid IC50.
Another assay concerns L-929. In words: cells. Also on record: species or system transformed mammalian cell lines; MTT assay (formazan absorbance at 595 nm), anti-proliferative activity on transformed cell lines. The note with it: Mus musculus, L929; read-out: Gephyronic acid IC50.
Assay [1] concerns the target T1, eukaryotic initiation factor 2 subunit alpha (eIF2α) (Homo sapiens, UniProt P05198).
T1 construct: gene EIF2S1; native endogenous protein in KB-3-1 cell lysate (M-PER), 36 kDa band; alpha subunit of the heterotrimeric eIF2 complex; detected by western blot
In words: DARTS (pronase protection, western blot). In kind it is biochemical. The settings on record: KB-3-1 cell lysate; native protein; 2 h at room temperature with compound, pronase 30 min at 37 °C; indirect binding evidence. On the technique in general: A western blot detects proteins with antibodies after separation by electrophoresis.

In assay [2] the target is T1, eukaryotic initiation factor 2 subunit alpha (eIF2α). In words: pull-down with streptavidin beads, western blot. In kind it is biochemical. The settings on record: KB-3-1 cell lysate; native protein; 4 °C 1 h with compound; labelled compound; indirect binding evidence.

T1 sequence (P05198 whole entry): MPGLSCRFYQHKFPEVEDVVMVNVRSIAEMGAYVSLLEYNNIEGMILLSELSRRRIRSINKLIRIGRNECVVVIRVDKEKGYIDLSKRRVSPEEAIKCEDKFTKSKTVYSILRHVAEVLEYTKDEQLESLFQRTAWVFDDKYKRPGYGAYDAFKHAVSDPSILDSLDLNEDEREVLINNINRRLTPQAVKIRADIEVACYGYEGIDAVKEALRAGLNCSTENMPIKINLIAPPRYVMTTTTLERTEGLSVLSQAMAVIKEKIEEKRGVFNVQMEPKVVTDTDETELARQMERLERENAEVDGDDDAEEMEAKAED

With `CO[C@@H]([C@H](C)[C@@H](O)CC(=O)O)C(C)(C)C(=O)[C@@H](C)C[C@H](C)[C@H](O)[C@@]1(C)O[C@@H]1[C@@H](C)C=C(C)C` [compound 1, gephyronic acid], the IC50 in the assay with KB-3-1 amounted to 14 nM; in the assay with MCF-7 it was 14 nM; in the assay with A-549 it was 8 nM; in the assay on PC-3, 6 nM; with L-929, 100 nM. Besides, the “DARTS (pronase protection, western blot)” value in assay [1] was “GA binding protected the initiation factor eIF2α in a dose dependent manner”.
In the case of `COC(=O)C[C@H](OC(=O)CCCC[C@@H]1SC[C@@H]2NC(=O)N[C@@H]21)[C@@H](C)[C@H](OC)C(C)(C)C(=O)[C@@H](C)C[C@H](C)[C@H](O)[C@]1(C)O[C@@H]1[C@@H](C)C=C(C)C` [4b, biotinylated GA methyl ester 4b], the “pull-down with streptavidin beads, western blot” value in assay [2] is given as “eIF2α was clearly present in preparations with biotinylated GA ester”.

As usually defined, the IC50 is the concentration that gives 50% inhibition.
